US11639350B2, “Heteroaryldihydropyrimidine derivatives and methods of treating hepatitis B infections” (Janssen Pharmaceutica NV, priority 2018, dated 2023)

How the values were obtained:
[1] = test system: HBV; experiment: HBV inhibitory activity: HBV DNA in the culture medium of HepG2.2.15 cells by q-PCR; assay type: cell-based; conditions: Hepatitis B virus, HepG2.2.15, 144 h, HepG2.2.15 cells, 6 days of compound treatment, HBV DNA in culture medium by q-PCR, highest concentration 10 μM; read-out: EC50
Outline: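 Supernatant HBV DNA quantified by q-PCR after a 6-day compound exposure, with one mid-course medium change, of HepG2.2.15 cells (stably integrated HBV; 40,000 per well, 2% FBS). Eight-point 3-fold series topped at 10 μM for antiviral EC50; separate plates of 5,000 cells per well with 100 μM top give CC50.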

[2] = Cytotoxicity determination in HepG2.2.15 cells (CCK-8); assay type: cell-based; conditions: human, 6 days of compound treatment, CCK-8, highest concentration 100 μM
Outline: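 CC50 is from CCK-8 absorbance (450 nm, 630 nm reference) after 2.5 h with reagent. Before that, compounds were applied for six days, top concentration 100 μM, eight threefold dilutions, one mid-course medium change, to stably HBV-integrated HepG2.2.15 cells plated at 5,000/well in 2% FBS.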

Row | SMILES | EC50 [1] [nM] | CC50 at 6 days [2] [nM]
1 | COC(=O)C1=C(C2CCN(S(=O)(=O)[C@H]3C[C@H](C(=O)O)C3)CC2)NC(c2nccs2)=NC1c1ccc(F)cc1Br (stereo partly drawn) [Compound 241B, (trans)-3-((4-(−6-(2-Bromo-4-fluorophenyl)-5-(methoxycarbonyl)-2-(thiazol-2-yl)-3,6-dihydropyrimidin-4-yl)piperidin-1-yl)sulfonyl)cyclobutanecarboxylic Acid] | 120 | 60000
2 | COC(=O)C1=C([C@H]2CC[C@@H](C(=O)OC)O2)NC(c2nccs2)=NC1c1cccc(F)c1Cl (single isomer, unassigned) [Compound 73H, cis-Methyl 4-(2-chloro-3-fluorophenyl)-6-(5-(methoxycarbonyl)-tetrahydro-furan-2-yl)-2-(thiazol-2-yl)-1,4-dihydropyrimidine-5-carboxylate] | 350 | 32900
3 | COC(=O)C1=C(C2CCN(S(=O)(=O)C3CN(CCOC(C)(C)C)C3)CC2)NC(c2nccs2)=NC1c1ccc(F)c(F)c1Cl (stereo not shown) [Compound 248, Methyl 6-(1-((1-(2-(tert-butoxy)ethyl)azetidin-3-yl)sulfonyl)piperidin-4-yl)-4-(2-chloro-3,4-difluorophenyl)-2-(thiazol-2-yl)-1,4-dihydropyrimidine-5-carboxylate] | 56 | 3500
4 | COC(=O)C1=C(C2CC(C(=O)O)C2)NC(c2nccs2)=NC1c1ccc(F)cc1Cl (stereo not shown) [Compound 86, 6-(3-Carboxy-cyclobutyl)-4-(2-chloro-4-fluoro-phenyl)-2-thiazol-2-yl-1,4-dihydro-pyrimidine-5-carboxylic acid methyl ester] | 110 | 21600
5 | CCOC(=O)C1=C(C2CCN(S(=O)(=O)[C@H]3CC[C@@H](C(=O)O)CC3)CC2)NC(c2nccs2)=NC1c1ccc(F)c(F)c1Cl (relative stereo) [Compound 354B, (cis)-4-((4-(6-(2-Chloro-3,4-difluorophenyl)-5-(ethoxycarbonyl)-2-(thiazol-2-yl)-3,6-dihydropyrimidin-4-yl)piperidin-1-yl)sulfonyl)cyclohexane-carboxylic Acid] | 18 | 7000
6 | CCOC(=O)C1=C([C@H]2C[C@@H](NS(C)(=O)=O)C2(C)C)NC(c2nccs2)=NC1c1ccc(F)cc1Cl (mixture of isomers) [Compound 437, (cis)-Ethyl 4-(2-chloro-4-fluorophenyl)-6-(2,2-dimethyl-3-(methylsulfonamido)cyclobutyl)-2-(thiazol-2-yl)-1,4-dihydropyrimidine-5-carboxylate] | 404 | 4000
7 | COC(=O)C1=C([C@H]2CC[C@@H](N(CCO)S(C)(=O)=O)CC2)NC(c2nccs2)=NC1c1ccc(F)cc1Cl (single isomer, unassigned) [Compound 180B, (cis)-Methyl 4-(2-chloro-4-fluorophenyl)-6-(4-(N-(2-hydroxyethyl)methylsulfonamido)cyclohexyl)-2-(thiazol-2-yl)-1,4-dihydro-pyrimidine-5-carboxylate] | 24 | 22100
8 | CCOC(=O)C1=C(C2CCN(S(=O)(=O)[C@H]3C[C@H](C(=O)O)C3)CC2)NC(c2ncc(F)cc2F)=NC1c1ccc(F)c(F)c1Cl (stereo partly shown) [Compound 352B] | 11 | 29400
9 | COC(=O)C1=C(C2CCN(S(=O)(=O)c3nccs3)CC2)NC(c2nccs2)=NC1c1ccc(F)cc1Cl (stereo not shown) [Compound 200A, Methyl 4-(2-chloro-4-fluorophenyl)-2-(thiazol-2-yl)-6-(1-(thiazol-2-ylsulfonyl)piperidin-4-yl)-1,4-dihydropyrimidine-5-carboxylate] | 102 | > 100000
10 | COC(=O)C1=C(C2CCOCC2)NC(c2nccs2)=NC1c1ccc(F)cc1Cl (stereo not shown) [Compound 51, Methyl 4-(2-chloro-4-fluorophenyl)-6-(tetrahydro-2H-pyran-4-yl)-2-(thiazol-2-yl)-1,4-dihydropyrimidine-5-carboxylate] | 112 | 9900
11 | COC(=O)C1=C(C2CCNC(=O)C2)NC(c2nccs2)=NC1c1ccc(F)cc1Cl (stereo not shown) [Compound 3, Methyl 4-(2-chloro-4-fluorophenyl)-6-(2-oxopiperidin-4-yl)-2-(thiazol-2-yl)-1,4-dihydro-pyrimidine-5-carboxylate] | 38 | 32800
12 | COC(=O)C1=C(C23CC(NS(=O)(=O)c4cccc(C(=O)O)c4)(C2)C3)NC(c2nccs2)=NC1c1ccc(F)cc1Cl (stereo not shown) [Compound 208B, 3-(N-(3-(6-(2-Chloro-4-fluorophenyl)-5-(methoxycarbonyl)-2-(thiazol-2-yl)-3,6-dihydropyrimidin-4-yl)bicyclo[1.1.1]pentan-1-yl)sulfamoyl)benzoic acid] | 280 | > 100000
13 | COC(=O)C1=C(C2CCN(S(=O)(=O)CC(O)CO)CC2)NC(c2nccs2)=NC1c1ccc(F)cc1Cl (single isomer, unassigned) [Compound 305A, Methyl 4-(2-chloro-4-fluorophenyl)-6-(1-((2,3-dihydroxypropyl)sulfonyl)piperidin-4-yl)-2-(thiazol-2-yl)-1,4-dihydropyrimidine-5-carboxylate] | 47 | 36200
14 | COC(=O)C1=C(C2CNC(=O)C2)NC(c2nccs2)=NC1c1cccc(F)c1Cl (stereo not shown) [Compound 284, methyl 4-(2-chloro-3-fluorophenyl)-6-(−5-oxopyrrolidin-3-yl)-2-(thiazol-2-yl)-1,4-dihydropyrimidine-5-carboxylate] | 226 | 21100
15 | COC(=O)C1=C(C2(F)CCN(S(C)(=O)=O)CC2)NC(c2nccs2)=NC1c1cccc(F)c1Cl (stereo not shown) [Compound 36, Methyl 4-(2-chloro-3-fluorophenyl)-6-(4-fluoro-1-(methylsulfonyl)-piperidin-4-yl)-2-(thiazol-2-yl)-1,4-dihydropyrimidine-5-carboxylate] | 153 | 20700
16 | COC(=O)C1=C([C@H]2CC[C@H](S(=O)(=O)NCCO)CC2)NC(c2nccs2)=NC1c1ccc(F)c(F)c1Cl (single isomer, unassigned) [Compound 291C, (trans)-Methyl 4-(2-chloro-3,4-difluorophenyl)-6-(4-(N-(2-hydroxyethyl)sulfamoyl)cyclohexyl)-2-(thiazol-2-yl)-1,4-dihydropyrimidine-5-carboxylate] | 16 | 12000
17 | COC(=O)C1=C(C23CC(NS(=O)(=O)CC(O)CO)(C2)C3)NC(c2nccs2)=NC1c1ccc(F)cc1Cl (stereo not shown) [Compound 393B, Methyl 4-(2-chloro-4-fluorophenyl)-6-(3-(2,3-dihydroxypropylsulfonamido)bicyclo[1.1.1]pentan-1-yl)-2-(thiazol-2-yl)-1,4-dihydropyrimidine-5-carboxylate] | 100 | 85000
18 | COC(=O)C1=C(C2CCN(S(=O)(=O)c3cn[nH]c3)CC2)NC(c2nccs2)=NC1c1cccc(F)c1Cl (stereo not shown) [Compound 158A, methyl 6-(1-((1H-pyrazol-4-yl)sulfonyl)piperidin-4-yl)-4-(2-chloro-3-fluorophenyl)-2-(thiazol-2-yl)-1,4-dihydropyrimidine-5-carboxylate] | 9 | 12700
19 | COC(=O)C1=C([C@H]2CCC[C@@H](CO)C2)NC(c2nccs2)=NC1c1ccc(F)cc1Cl (single isomer, unassigned) [Compound 173A, Methyl 4-(2-chloro-4-fluorophenyl)-6-((cis)-3-(hydroxymethyl)cyclohexyl)-2-(thiazol-2-yl)-1,4-dihydropyrimidine-5-carboxylate] | 76 | 18600
20 | COC(=O)C1=C([C@H]2C[C@H](NC(C)=O)C2)NC(c2nccs2)=NC1c1ccc(F)cc1Cl (single isomer, unassigned) [Compound 89R, trans-Methyl 6-(3-acetamidocyclobutyl)-4-(2-chloro-4-fluoro-phenyl)-2-(thiazol-2-yl)-1,4-dihydropyrimidine-5-carboxylate] | 112 | 17200
21 | COC(=O)C1=C([C@H]2CC[C@H](S(=O)(=O)N(C)C)CC2)NC(c2nccs2)=NC1c1ccc(F)c(F)c1Cl (single isomer, unassigned) [Compound 233C, (trans)-methyl 4-(2-chloro-3,4-difluorophenyl)-6-(4-(N,N-dimethylsulfamoyl)cyclohexyl)-2-(thiazol-2-yl)-1,4-dihydropyrimidine-5-carboxylate] | 13 | 5600
22 | CCOC(=O)C1=C([C@H]2CC[C@H](C(=O)O)CC2)NC(c2nccs2)=NC1c1ccccc1Br (stereo partly drawn) [Compound 148A, (trans)-4-(6-(2-bromophenyl)-5-(ethoxycarbonyl)-2-(thiazol-2-yl)-3,6-dihydropyrimidin-4-yl)cyclohexane-1-carboxylic Acid] | 97 | 29400
23 | COC(=O)C1=C(C2CCN(S(=O)(=O)CC34CC(C(=O)O)(C3)C4)CC2)NC(c2nccs2)=NC1c1ccc(F)c(F)c1Cl (stereo not shown) [Compound 456, 3-(((4-(6-(2-Chloro-3,4-difluorophenyl)-5-(methoxycarbonyl)-2-(thiazol-2-yl)-3,6-dihydropyrimidin-4-yl)piperidin-1-yl)sulfonyl)methyl)bicyclo[1.1.1]pentane-1-carboxylic Acid] | 43 | 19500
